Measurements published in patent US7091189B2, “Medicament for treating lung cancer” (Dainippon Sumitomo Pharma Co., Ltd., priority 2002, dated 2006).
Structures can show the parent of a compound that is named as a salt. Where two headings read alike, the source gives them in different places.

Tests used:
[1] = tested on: human squamous cell lung carcinoma QC-56 cell strain; assay: Antitumor activity in nude mice with transplanted QC-56 (amrubicin hydrochloride and vinorelbine); format: in vivo; conditions: single agent at maximum tolerated dose (amrubicin hydrochloride 25 mg/kg; vinorelbine 16 mg/kg)
Method: (§1) Human small cell lung cancer LX-1 cell strain was subcutaneously transplanted to nude mice (59 animals) at 6 weeks of age. After 11 days from the tumor transplantation, 36 animals having a tumor volume of about 100 to 300 mm^3 were allotted to 6 groups consisting of 6 animals per group. […] Thereafter, tumor volume and body weight of the mice were measured for 23 days.
(§2) Minimum T/C %: the minimum value of ratio (%) of tumor growth rate^*) for respective administration groups to tumor growth rate^*) for the vehicle administration group within the period for measurement. ^*)Tumor growth rate: a ratio of an average value of tumor volume for a group of 6 animals at respective point in time of measurement to an average value of tumor volume for a group of 6 animals at respective point in time of drug administration.
(§3) Antitumor activity by a combination of amrubicin hydrochloride and vinorelbine was tested in the same way as Example 1, except that human squamous cell lung carcinoma QC-56 cell strain was used in place of human small cell lung cancer LX-1 cell strain and that the maximum tolerated dose of vinorelbine was set at 16 mg/kg. Vinorelbine was administered by giving 16, 12.8 or 8 ml/kg aliquot of Navelbine Injection (containing 10 mg/ml), purchased from Kyowa Hakko Kogyo Co., Ltd., as the maximum tolerated dose, the 0.8 times dose or the 0.5 times dose of vinorelbine. In addition, nude mice (100 animals) at 5 weeks of age were used.

[2] = humans, cited from earlier work
[3] = tested on: human squamous cell lung carcinoma QC-56 cell strain; assay: Antitumor activity in nude mice with transplanted QC-56 (amrubicin hydrochloride and gemcitabine); format: in vivo; conditions: single agent at maximum tolerated dose (amrubicin hydrochloride 25 mg/kg; gemcitabine 300 mg/kg i.p. 2q7d)
Method: as §1, §2, §3
Antitumor activity by a combination of amrubicin hydrochloride and gemcitabine was tested in the same way as Example 2, except that the maximum tolerated dose of gemcitabine was set at 300 mg/kg/day and the administration was intraperitoneally once per week in two cycles. Gemcitabine was administered by giving […] aliquot of Gemzar Injection (containing 200 mg/bial), purchased from Eli Lilly Japan K.K., as the maximum tolerated dose, the 0.8 times dose or the 0.5 times dose of gemcitabine. In addition, nude mice (80 animals) at 5 weeks of age were used.

[4] = tested on: Human small cell lung cancer LX-1 cell strain; assay: Antitumor activity in nude mice with subcutaneously transplanted LX-1 (amrubicin hydrochloride and irinotecan); format: in vivo; conditions: single agent at maximum tolerated dose, intravenous (amrubicin hydrochloride 25 mg/kg; irinotecan 120 mg/kg), tumor volume measured for 23 days
[5] = mice, cited from earlier work
[6] = humans, cited from earlier work; remark: listed apart in the source
[7] = rabbit chronic experimental model, compared with doxorubicin; Invest. New Drug, 15, 219–225 (1997); cited from earlier work
tumor cells = conditions: compared with amrubicin; Cancer Chemothr. Pharmacol., 30, 51–57 (1992); cited from earlier work
[8] = listed as amrubicin hydrochloride

SMILES: CC(=O)[C@]1(N)Cc2c(O)c3c(c(O)c2[C@@H](OC2CC(O)C(O)CO2)C1)C(=O)c1ccccc1C3=O (stereo partly drawn) [Amrubicin hydrochloride]
- Minimum T/C(%) Average ± SD [1]: 37.73 ± 7.56%
- Minimum T/C(%) Average ± SD [1, 8]: 37.73%
- maximum tolerated dose ([2]; administration in 3 continuous days): 50 mg/m^2 per day
- maximum tolerated dose ([2]; once a day single dose): 130 mg/m^2
- Minimum T/C(%) Average ± SD [3]: 51.06 ± 16.56%
- Minimum T/C(%) Average ± SD [3, 8]: 51.06%
- Minimum T/C(%) Average ± SD [4]: 40.79 ± 5.92%
- Minimum T/C(%) Average ± SD [4, 8]: 40.79%
- maximum tolerated dose ([5]; expressed per body surface): 75 mg/m^2
- maximum tolerated dose [5]: 25 mg/kg

SMILES: Nc1ccn([C@@H]2O[C@H](CO)[C@@H](O)C2(F)F)c(=O)n1 [Gemcitabine]
- Minimum T/C(%) Average ± SD [3]: 69.47 ± 26.06%
- Minimum T/C(%) Average ± SD ([3]; listed as gemcitabine): 69.47%
- maximum administered dose [6]: 1000 mg/m^2
- maximum tolerated dose [5]: 300 mg/kg/dose

SMILES: CCc1c2c(nc3ccc(OC(=O)N4CCC(N5CCCCC5)CC4)cc13)-c1cc3c(c(=O)n1C2)COC(=O)[C@]3(O)CC [Irinotecan]
- maximum administered dose ([6]; at intervals of 3 weeks): 350 mg/m^2
- maximum administered dose ([6]; at intervals of a week): 150 mg/m^2

SMILES: CCC1=C[C@@H]2CN(C1)Cc1c([nH]c3ccccc13)[C@@](C(=O)OC)(c1cc3c(cc1OC)N(C)[C@H]1[C@@](O)(C(=O)OC)[C@H](OC(C)=O)[C@]4(CC)C=CCN5CC[C@]31[C@@H]54)C2 [Vinorelbine]
- Minimum T/C(%) Average ± SD [1]: 38.24 ± 12.87%
- Minimum T/C(%) Average ± SD ([1]; listed as vinorelbine): 38.24%
- maximum administered dose [6]: 25 mg/m^2
- maximum tolerated dose [5]: 16 mg/kg

SMILES: COc1cc2ncnc(Nc3ccc(F)c(Cl)c3)c2cc1OCCCN1CCOCC1 [ZD 1839, 4-(3-chloro-4-fluoroanilino)-7-methoxy-6-(3-morpholinopropoxy)quinazoline]
- maximum tolerated dose [2]: 700 mg/day
- maximum tolerated dose [5]: 200 mg/kg

SMILES: CC(=O)[C@]1(N)Cc2c(O)c3c(c(O)c2[C@@H](O[C@H]2C[C@H](O)[C@H](O)CO2)C1)C(=O)c1ccccc1C3=O [amrubicin, (+)-(7S,9S)-9-acetyl-9-amino-7-[(2-deoxy-β-D-erythro-pentopyranosyl)oxy]-7,8,9,10-tetrahydro-6,11-dihydroxy-5,12-naphthacenedione]
- cardiac toxicity [7]: far weaker than doxorubicin

SMILES: CC(O)[C@]1(N)Cc2c(O)c3c(c(O)c2[C@@H](O[C@H]2C[C@H](O)[C@H](O)CO2)C1)C(=O)c1ccccc1C3=O (stereo partly drawn) [amrubicinol]
- inhibitory activity against growth of tumor cells (tumor cells): considerably stronger inhibitory activity against growth of tumor cells than that of amrubicin

SMILES: CC(=O)O[C@@]12CO[C@@H]1C[C@H](O)[C@@]1(C)C(=O)[C@H](O)C3=C(C)[C@@H](OC(=O)[C@H](O)[C@@H](NC(=O)OC(C)(C)C)c4ccccc4)C[C@@](O)([C@@H](OC(=O)c4ccccc4)[C@H]21)C3(C)C [docetaxel]
- maximum administered dose [6]: 70 mg/m^2
- maximum tolerated dose [5]: 30 mg/kg/dose

SMILES: CC(=O)O[C@H]1C(=O)[C@@]2(C)[C@H]([C@H](OC(=O)c3ccccc3)[C@]3(O)C[C@H](OC(=O)[C@H](O)[C@@H](NC(=O)c4ccccc4)c4ccccc4)C(C)=C1C3(C)C)[C@]1(OC(C)=O)CO[C@@H]1C[C@@H]2O [paclitaxel]
- maximum tolerated dose [5]: 12.5 mg/kg/dose
